Measurements published in patent publication US20230416168A1 (EUROCHEM ANTWERPEN, priority 2020, published 2023).
pIC50: −log10 of the molar value. Read-outs that look alike come from different tables or passages of the source.

Key:
Nitrosomonas europaea = test: Nitrification inhibition assay with Nitrosomonas europaea (nitrite level after 24 h); assay type: cell-based; settings: for pIC50 / activity at 100 µM: Nitrosomonas europaea; for pIC50: 8-point dose response, 2 to 100 μM, read-out: IC50; for activity at 100 µM: tested concentration 100 μM, 24 h, normalized to DMSO (100%) and 100 μM DMP (0%), read-out: Nitrification (%) at tested concentration (0 = maximum activity)
Method in brief: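 Fivefold-concentrated N. europaea culture with ammonium incubated 24 h at 28 °C, shaken, with compound (single-point screen at 50 μM final; dose–response 2–100 μM, 8 points, 1.75-fold steps). Nitrite measured by Griess reagent at 540 nm, normalised per plate to 1% DMSO and 100 μM DMP controls; IC50 from logistic fit.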

Moorslede soil = test: In soil nitrification inhibition assay, Moorslede soil; settings: for inhibition at 50 µM / inhibition at 20 µM / inhibition at 5 µM: soil
Description: Top layer (0 to 10 cm) soil samples were collected from different fields in Belgium (Merelbeke and Moorslede). Vegetation on the field trial was removed and samples were taken from different plots. All soil samples were mixed and sieved (mesh size 2.8 mm) to filter large debris and homogenize soil. The soil was stored at 5° C. in plastic containers covered with Saran foil to prevent changes in microbial community composition and to maintain the original soil water content.
Soil water content was determined by drying 20 g soil for 48 h in a 60° C. oven and measuring weight before and after drying. Based on the soil water content (±20%), compound solutions were prepared so that addition of 200 μl compound and 200 μl NH4Cl solution would result in a final compound concentration of 50 μM and a final NH4^+ concentration of 10 mM. Per treatment, 5 small pots were filled with 20 g soil. Next, the soil was treated first with the respective compound solution and then with the NH4Cl solution. Per tray, positive (50 μM DMP) and negative controls (DMSO) were included. Pots were incubated at 21° C. (6 a.m. to 10 p.m. light) for 7 days. Demineralized water was added to the soil every 2 to 3 days to a soil weight of 20 g. In the end, each sample of 20 g soil was dissolved in 100 ml 1M KCl and shaken for 1 hour, followed by filtration through Whatmann® paper. The filtrate was used to measure pH, NH4^+ and NO3− concentrations.
A set of examples was tested in the same conditions (Moorslede soil, 3 days of incubation) at a concentration of 50 μM.
Another set of examples was tested in different concentrations in Moorslede soil as well, and were sampled after 5 days.
The effect of 3H-1,3-thiazole-2-thione was tested in soil in accordance with the test described above in section 3.3.

[1] = 72 h, 3 days, read-out: % Nitrification inhibition in soil (3 days of incubation, Moorslede soil) at 50 μM
[2] = 120 h, 5 days, read-out: % Nitrification inhibition in soil (5 days of incubation, Moorslede soil) at indicated concentration
[3] = 120 h, 20 μM, 5 days, read-out: % Nitrification inhibition in soil (5 days of incubation, Moorslede soil) at indicated concentration

| SMILES | nitrification inhibition, in words (Nitrosomonas europaea) | Average nitrification [%] in Nitrosomonas europaea (Nitrosomonas europaea; 2 μM) | Average nitrification [%] in Nitrosomonas europaea (Nitrosomonas europaea; 3.5 μM) | Average nitrification [%] in Nitrosomonas europaea (Nitrosomonas europaea; 6 μM) | Average nitrification [%] in Nitrosomonas europaea (Nitrosomonas europaea; 11 μM) | Average nitrification [%] in Nitrosomonas europaea (Nitrosomonas europaea; 19 μM) | Average nitrification [%] in Nitrosomonas europaea (Nitrosomonas europaea; 33 μM) | Average nitrification [%] in Nitrosomonas europaea (Nitrosomonas europaea; 57 μM) | Average nitrification [%] in Nitrosomonas europaea (Nitrosomonas europaea; 100 μM) | pIC50 (Nitrosomonas europaea) | activity at 100 µM (Nitrosomonas europaea) | nitrification inhibition in soil, in words (Moorslede soil; 20 μM, 5 days) | inhibition at 50 µM (Moorslede soil; [1]) | inhibition at 20 µM (Moorslede soil; 120 h, 20 μM, 5 days, read-out: Average % nitrification inhibition in soil (5 days of incubation, Moorslede soil) at 20 μM) | inhibition at 5 µM (Moorslede soil; [2]) | inhibition at 20 µM (Moorslede soil; [3]) | inhibition at 50 µM (Moorslede soil; [2]) |
| --- | --- | --- | --- | --- | --- | --- | --- | --- | --- | --- | --- | --- | --- | --- | --- | --- | --- |
| S=c1[nH]ccs1 [Example 24, 3H-1,3-thiazole-2-thione] | nearly completely inhibits nitrification | 79% | 78% | 76% | 74% | 60% | 43% | 20% | 1% | 4.89 | 1% | effectively inhibits nitrification in soil | 40% | 14% | – | – | – |
| S=C1NCCO1 [Example 7] | – | – | – | – | – | – | – | – | – | > 5.22 | 0% | – | 100% | – | 8% | 32% | 38% |
| CN(Cc1nc2ccccc2s1)CN1CCOC1=S [Example 5, 3-[[1,3-benzothiazol-2-ylmethyl(methyl)amino]methyl]-1,3-oxazolidine-2-thione] | strong nitrification inhibition | – | – | – | – | – | – | – | – | 4.96 | 0% | – | – | – | – | – | – |
| CN(Cc1c(Cl)nc2sccn12)CN1CCSC1=S [Example 1, 3-[[(6-chloroimidazo[2,1-b][1,3]thiazol-5-yl)methyl-methylamino]methyl]-1,3-thiazolidine-2-thione] | strongly inhibited nitrification | – | – | – | – | – | – | – | – | > 5.70 | 0% | – | – | – | – | – | – |
| CSc1nccs1 [Example 25, 2-(methylsulfanyI)-1,3-thiazole] | – | 85% | 76% | 73% | 58% | 50% | 32% | 20% | 2% | 4.92 | 2% | – | 73% | – | 3% | 14% | 30% |
